Legend:
[1] = tested on: TNF-α; experiment: Inflammatory markers, RT-PCR expression study in TNF-α induced FLS; type: cell-based; settings: sample 10 μg/mL; FLS induced with 10 ng/ml rat TNF-α, 6 hrs; Control = 1, Induced 7.93
Method: (§1) FLS cells (8×10^4 cells/well) were seeded in 24-well plates and incubated overnight at 37° C. under 5% CO2. […] RT-PCR expression study: After 6 hrs of incubation, total cellular RNA from untreated and treated cells were isolated using Trizol Reagent® (Ambion, Life Technologies), according to the manufacturer's instructions, followed by RNase-free DNase I treatment (ThermoFisher Scientific) to remove any genomic DNA. Messenger RNA quality and concentration were analyzed spectrophotometrically (NanoDrop Lite, ThermoFisher Scientific). One microgram of total RNA was reverse transcribed into cDNA using Revert-aid First Strand cDNA synthesis kit (ThermoFisher Scientific), according to the manufacturer's instructions, and stored at −80° C. until use. Then 20 μl of the reaction mixture was subjected to PCR using SYBR green qPCR master mix for amplification of cDNAs using specifically designed primers procured from Eurofins India, as an internal control, the house keeping gene § actin was co-amplified with each reaction (Table 2). PCR was carried out in Light cycler 96 (Roche Life Science) and PCR conditions for genes were initial denaturation at 95° C. for 10 min followed by 35 cycles consisting of denaturation at 95° C. for 30 seconds, annealing of primers at 60° C. for 30 seconds, extension at 72° C. for 30 seconds and final cooling at 72° C. for 30 seconds (Table 1).

[2] = tested on: IFN-γ; experiment: as above; type: cell-based; settings: sample 10 μg/mL; FLS induced with 10 ng/ml rat TNF-α, 6 hrs; Control = 1, Induced 5.7
Method: as §1

[3] = tested on: CCL-5; experiment: as above; type: cell-based; settings: sample 10 μg/mL; FLS induced with 10 ng/ml rat TNF-α, 6 hrs; Control = 1, Induced 7.16
Method: as §1

[4] = tested on: MMP-3; experiment: as above; type: cell-based; settings: sample 10 μg/mL; FLS induced with 10 ng/ml rat TNF-α, 6 hrs; Control = 1, Induced 5.14
Method: as §1

[5] = tested on: Cathepsin; experiment: as above; type: cell-based; settings: sample 10 μg/mL; FLS induced with 10 ng/ml rat TNF-α, 6 hrs; Control = 1, Induced 3.86
Method: as §1

[6] = tested on: Bax/Bcl-2; experiment: Apoptosis analysis, Bax/Bcl-2 RT-PCR expression in FLS; type: cell-based, rat; settings: 24 h treatment; compared to the control; FIG. 19
Method: FLS apoptosis was assessed with RT-PCR expression study. In short, FLS cells (8×10^4 cells/well) were seeded in 24-well plates and incubated overnight at 37° C. under 5% CO2. After synchronization in serum-free medium for 24 h, cells were treated with or without the presence of samples in DMEM 10% FBS for 24 h. After the treatment period, the cells were collected, total cellular RNA was isolated and processed for RT-PCR analysis (Table 3) as mentioned before.

[7] = tested on: Fibroblast-like synoviocytes (FLS); experiment: WST-1 proliferation assay; type: cell-based, rat; settings: 20 μg/mL, 72 hours; FIG. 5
Method: FLS were isolated from synovial tissues by enzymatic digestion. In short, the tissues were separated into 1-mm^3 blocks with microsurgery scissors. After which the tissues were incubated with 0.1% collagenase type II enzyme in DMEM supplemented with 10% FBS for enzymatic digestion at 37° C. for 45 min in an orbital shaker incubator (200 rpm).
After the incubation time, the tubes were vortexed vigorously for 1-2 min to release the cells and filtered using a 100 μm mesh strainer. The filtrate was centrifuged for 5 min at 1200 rpm, the cells were resuspended in DMEM supplemented with 10% FBS and 100 μg/ml streptomycin and 100 U/ml penicillin and cultured in a humidified incubator at 37° C. under 5% CO2.
WST-1 assay was used to measure the effect of different samples on FLS proliferation. FLS were seeded in 96-well plates at a density of 5×10^3 cells/well and incubated overnight at 37° C. under 5% CO2. After the treatment period, 100 μl WST-1 reagent (5015944001, Sigma, USA) diluted 1:10 in serum-free DMEM culture media was added to each well, and incubated at 37° C. under 5% CO2 for 2 h. The absorbance was measured at 450 nm with a reference wavelength of 610 nm.

[8] = tested on: Th17 and Treg cells in spleen; experiment: Treg and Th17 analysis in spleen (flow cytometry); type: in vivo, rat; settings: spleen of CIA rats; celecoxib control; RA control at 3.5; FIG. 35
Method: Spleen was obtained from collagen induced arthritis rats under sterile conditions for the lymphocyte isolation. The spleen was washed twice with PBS containing 100 μg/ml streptomycin and 100 U/ml penicillin and cut into small pieces with microsurgery scissors, homogenized with plunger end of the syringe and filtered using a 100 μm mesh strainer. The filtrate was centrifuged for 5 min at 1200 rpm, washed 1-2 times with PBS, after which 1×10^6 cells/ml were suspended in RPMI media supplemented with 10% FBS. The imbalance is effected by reducing Th17 cells and increasing T-cell (Treg) (FIGS. 33-35) with the ratio of Th17/Treg preferably as 1, or more preferably between 0-1 compared to RA control at 3.5 (FIG. 35).
After the stimulation, cells were collected and 2×10^5 cells were aliquoted into different tubes for evaluating Th17 and Treg population. The antibody dilutions used for the analysis were as recommended by the respective manufacturer. To evaluate Th17 population, cells were initially stained with FITC Mouse Anti-Rat CD3 (559975, BD pharmingen) and APC Mouse Anti-Rat CD4 (550057, BD pharmingen) antibodies. […] FCM was performed on a BD FACSCelesta system (BD Biosciences, Franklin Lakes, N.J., USA) and analyzed using FlowJo software.

[9] = tested on: collagen-induced arthritis (CIA); experiment: Collagen-induced arthritis study, arthritic score; type: in vivo, rat; settings: positive control, 10 mg/kg; RA control is 3.5; scale 0-4; FIG. 32
From the text: The […] (Table 4) collagen-induced arthritis (CIA) is a widely studied autoimmune model of rheumatoid arthritis. In this model, autoimmune arthritis is induced by immunization with type II collagen (CII) emulsified in complete Freund's adjuvant. These animals develop an autoimmune-mediated polyarthritis that shares several clinical, histological, and immunological features with the human autoimmune disease rheumatoid arthritis. The immune response to CII is characterized by both the stimulation of collagen-specific T cells and the production of high titers of antibody specific for both the immunogen (heterologous CII) and the autoantigen (mouse or rat CII).
Arthritis induced by administering type-2 collagen (chicken sternal cartilage, Sigma catalog no: C9301) which will be emulsified with incomplete Freund's adjuvant (FIA) at 1:1 ratio. On Day 0, Rats were intradermally injected with 200 μL (200 μg/animal) of collagen-FIA emulsion at the base of the tail (First Immunization). For booster injection the emulsion was prepared same as above and injected with 100 μL (100 μg/animal) of collagen-FIA emulsion given on day 7. Test sample administered from day 0 to day 20. […]

SMILES | TNF-α (inflammatory marker expression) [1] | IFN-γ (inflammatory marker expression) [2] | CCL-5 (inflammatory marker expression) [3] | MMP-3 (inflammatory marker expression) [4] | Cathepsin (inflammatory marker expression) [5] | Bax/Bcl-2 ratio (pro-apoptosis), ranking [6] | inhibition of FLS proliferation, trend among curcuminoid analogues [7] | ratio of Th17/Treg [8] | arthritis score [9]
COc1cc(/C=C/C(=O)CC(=O)/C=C/c2ccc(O)c(OC)c2)ccc1O [Curcumin, curcumin] | 3.93 ± 0.84 | 2.7 ± 0.19 | 3.01 ± 0.04 | 3.98 ± 0.48 | 2.70 ± 0.14 | BDMC>DMC>curcumin | BDMC>curcumin>DMC | – | –
COc1cc(/C=C/C(O)=C/C(=O)/C=C/c2ccc(O)cc2)ccc1O [DMC, demethoxycurcumin] | 3.57 ± 1.77 | 4.43 ± 0.15 | 7.03 ± 3.03 | 4.91 ± 0.41 | 3.69 ± 0.14 | – | – | – | –
Cc1ccc(-c2cc(C(F)(F)F)nn2-c2ccc(S(N)(=O)=O)cc2)cc1 [celecoxib] | – | – | – | – | – | – | – | 0.5 | 1
O=C(/C=C/c1ccc(O)cc1)CC(=O)/C=C/c1ccc(O)cc1 [BDMC, bisdemethoxycurcumin] | 3.20 ± 2.1 | 4.57 ± 0.11 | 4.07 ± 0.05 | 6.07 ± 0.05 | 3.36 ± 0.37 | – | – | – | –

— US20220193006A1, “COMPOSITIONS FOR EFFECTIVE MANAGEMENT OF FIBROBLAST-LIKE SYNOVIOCYTES MEDIATED RHEUMATOID ARTHRITIS” (priority 2020, published 2022)
